Here are results for 28 compounds from patent US9303012B2, “Pyridine-2-amides useful as CB2 agonists” (Hoffmann-La Roche Inc., priority 2012, dated 2016).

A value given as a limit tells only on which side of the number the result lay.

For one assay, the target named is human CB2 receptors (Homo sapiens (Human), UniProt P34972). Kind of assay: functional cAMP assay, CHO cells expressing human CB2 receptors. The class given is cell-based. Summed up:
(§1)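 CHO cells expressing human CB1 or CB2 were preincubated 30 min at 30 °C in Krebs Ringer bicarbonate with 1 mM IBMX, then exposed to compound 30 min at 30 °C. cAMP quantified by TR-FRET competition (Alexa700 antibody/ruthenium-cAMP) against a 10 μM–0.13 nM standard curve; EC50 derived.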
For orientation: Cyclic AMP is a second messenger, typically raised through Gs and lowered through Gi signalling.

A further assay deals with human CB1 receptors (Homo sapiens (Human), UniProt P21554). Kind of assay: functional cAMP assay, CHO cells expressing human CB1 receptors. The class given is cell-based. Summed up:
as §1

Chain of human CB1 receptors (P21554 whole entry): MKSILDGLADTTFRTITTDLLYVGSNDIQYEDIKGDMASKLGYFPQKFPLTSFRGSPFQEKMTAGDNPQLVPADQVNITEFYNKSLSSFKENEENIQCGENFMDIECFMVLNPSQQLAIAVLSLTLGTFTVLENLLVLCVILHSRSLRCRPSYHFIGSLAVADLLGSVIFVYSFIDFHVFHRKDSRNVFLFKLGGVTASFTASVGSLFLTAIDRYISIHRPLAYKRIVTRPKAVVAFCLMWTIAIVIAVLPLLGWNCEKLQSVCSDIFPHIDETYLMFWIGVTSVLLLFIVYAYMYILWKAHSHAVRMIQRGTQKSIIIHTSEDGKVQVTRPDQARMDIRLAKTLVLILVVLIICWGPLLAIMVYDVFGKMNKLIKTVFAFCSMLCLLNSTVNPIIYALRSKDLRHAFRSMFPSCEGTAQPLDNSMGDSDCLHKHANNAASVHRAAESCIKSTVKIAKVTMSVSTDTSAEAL
Chain of human CB2 receptors (P34972 whole entry): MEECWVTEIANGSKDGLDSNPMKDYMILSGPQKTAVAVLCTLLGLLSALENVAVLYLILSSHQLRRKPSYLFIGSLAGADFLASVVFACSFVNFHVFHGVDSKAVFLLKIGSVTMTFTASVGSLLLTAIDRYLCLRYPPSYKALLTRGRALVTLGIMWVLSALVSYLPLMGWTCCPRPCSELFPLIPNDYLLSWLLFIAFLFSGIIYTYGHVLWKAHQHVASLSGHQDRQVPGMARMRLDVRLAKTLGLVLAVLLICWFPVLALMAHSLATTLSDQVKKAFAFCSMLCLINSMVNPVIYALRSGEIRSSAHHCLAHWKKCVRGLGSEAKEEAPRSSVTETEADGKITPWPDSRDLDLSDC

Broadly, the EC50 is the concentration giving half of the maximal effect. Low readings indicate an effect from little substance, high ones a need for much substance. For `O=C(c1ccc(N2CC(F)(F)C2)c(OCC2CC2)n1)N1CCCC12CCC2` [Example 101, (5-Aza-spiro[3.4]oct-5-yl)-[6-cyclopropylmethoxy-5-(3,3-difluoro-azetidin-1-yl)-pyridin-2-yl]-methanone], the EC50 on human CB2 receptors was 4.9 nM; at human CB1 receptors, more than 10000 nM.

In the case of `O=C(c1ccc(N2CC(F)(F)C2)c(OCC2CC2)n1)N1CC(F)(F)C1` [Example 102, [6-Cyclopropylmethoxy-5-(3,3-difluoro-azetidin-1-yl)-pyridin-2-yl]-(3,3-difluoro-azetidin-1-yl)-methanone], the EC50 on human CB2 receptors is 181 nM; at human CB1 receptors it was more than 10000 nM.

As to `O=C(c1ccc(N2CC(F)(F)C2)c(OCC2CC2)n1)N1CCC2(CC2)C1` [Example 104, (5-Aza-spiro[2.4]hept-5-yl)-[6-cyclopropylmethoxy-5-(3,3-difluoro-azetidin-1-yl)-pyridin-2-yl]-methanone], the EC50 on human CB2 receptors is 7.4 nM; on human CB1 receptors it was more than 10000 nM.

Turning to `CN(CC1CC1)C(=O)c1ccc(N2CC(F)(F)C2)c(OCC2CC2)n1` [Example 105, 6-Cyclopropylmethoxy-5-(3,3-difluoro-azetidin-1-yl)-pyridine-2-carboxylic acid cyclopropylmethyl-methyl-amide], the values for the EC50 at human CB2 receptors and at human CB1 receptors were 218 nM and more than 10000 nM, respectively.

`O=C(c1ccc(N2CC(F)(F)C2)c(OCC2CC2)n1)N1CCN(CC2CC2)CC1` [Example 106, [6-Cyclopropylmethoxy-5-(3,3-difluoro-azetidin-1-yl)-pyridin-2-yl]-(4-cyclopropylmethyl-piperazin-1-yl)-methanone]: the figures for the half-maximal effective concentration (EC50) on human CB2 receptors and at human CB1 receptors were 123 nM and more than 10000 nM, respectively.

As to `CCOC(=O)C1C2CN(C(=O)c3ccc(N4CC(F)(F)C4)c(OCC4CC4)n3)CC21` (centres unmarked) [Example 107, 3-[6-Cyclopropylmethoxy-5-(3,3-difluoro-azetidin-1-yl)-pyridine-2-carbonyl]-3-aza-bicyclo[3.1.0]hexane-6-carboxylic acid ethyl ester], the values for the EC50 on human CB2 receptors and at human CB1 receptors were 757 nM and more than 10000 nM, respectively.

On to `COC(=O)C1CCCN1C(=O)c1ccc(N2CC(F)(F)C2)c(OCC2CC2)n1` (centres unmarked) [Example 108, 1-[6-Cyclopropylmethoxy-5-(3,3-difluoro-azetidin-1-yl)-pyridine-2-carbonyl]-pyrrolidine-2-carboxylic acid methyl ester], for which the EC50 on human CB2 receptors was 156 nM; on human CB1 receptors, more than 10000 nM.

Regarding `O=C(OCc1ccccc1)N1CCN(C(=O)c2ccc(N3CC(F)(F)C3)c(OCC3CC3)n2)CC1` [Example 109, 4-[6-Cyclopropylmethoxy-5-(3,3-difluoro-azetidin-1-yl)-pyridine-2-carbonyl]-piperazine-1-carboxylic acid benzyl ester], the EC50 on human CB2 receptors was 360 nM; on human CB1 receptors it was more than 10000 nM.

Consider `O=C(O)C1C2CN(C(=O)c3ccc(N4CC(F)(F)C4)c(OCC4CC4)n3)CC21` (centres unmarked) [Example 110, 3-[6-Cyclopropylmethoxy-5-(3,3-difluoro-azetidin-1-yl)-pyridine-2-carbonyl]-3-aza-bicyclo[3.1.0]hexane-6-carboxylic acid], for which the EC50 is 386 nM at human CB2 receptors and more than 10000 nM at human CB1 receptors.

Take `CC(C)(C)OC(=O)N1CCC2(CCCN2C(=O)c2ccc(C3CC3)c(Cc3ccc(F)cc3)n2)CC1` [Example 111, 1-[5-Cyclopropyl-6-(4-fluoro-benzyl)-pyridine-2-carbonyl]-1,8-diaza-spiro[4.5]decane-8-carboxylic acid tert-butyl ester]: the EC50 on human CB2 receptors was 8 nM; at human CB1 receptors, 2780 nM.

Take `NC(=O)[C@@H]1CSCN1C(=O)c1ccc(N2CC(F)(F)C2)c(OCC2CC2)n1` [Example 112, (−)-3-[6-Cyclopropylmethoxy-5-(3,3-difluoro-azetidin-1-yl)-pyridine-2-carbonyl]-thiazolidine-4-carboxylic acid amide]: the EC50 is 19.8 nM on human CB2 receptors and more than 10000 nM at human CB1 receptors.

In the case of `O=C(c1ccc(C2CC2)c(Cc2ccc(F)cc2)n1)N1CCCC12CCNCC2` [Example 113, [5-Cyclopropyl-6-(4-fluoro-benzyl)-pyridin-2-yl]-(1,8-diaza-spiro[4.5]dec-1-yl)-methanone], the EC50 was 212 nM on human CB2 receptors and more than 10000 nM on human CB1 receptors.

For `NC(=O)C1CCCN1C(=O)c1ccc(N2CC(F)(F)C2)c(OCC2CC2)n1` (centres unmarked) [Example 114, 1-[6-Cyclopropylmethoxy-5-(3,3-difluoro-azetidin-1-yl)-pyridine-2-carbonyl]-pyrrolidine-2-carboxylic acid amide], the EC50 on human CB2 receptors is 473 nM; at human CB1 receptors, more than 10000 nM.

For the compound `NC(=O)[C@@H]1CS(=O)(=O)CN1C(=O)c1ccc(C2CC2)c(OCC2CC2)n1` [Example 115, (−)-3-(5-Cyclopropyl-6-cyclopropylmethoxy-pyridine-2-carbonyl)-1,1-dioxo-1λ^6-thiazolidine-4-carboxylic acid amide], the EC50 at human CB2 receptors was 7.2 nM; on human CB1 receptors it was more than 10000 nM.

As for `NC(=O)[C@H]1CS(=O)(=O)CN1C(=O)c1ccc(C2CC2)c(OCC2CC2)n1` [Example 117, (+)-3-(5-Cyclopropyl-6-cyclopropylmethoxy-pyridine-2-carbonyl)-1,1-dioxo-1λ^6-thiazolidine-4-carboxylic acid amide], the values for the EC50 on human CB2 receptors and on human CB1 receptors were 485 nM and more than 10000 nM, respectively.

Regarding `O=C(c1ccc(N2CC(F)(F)C2)c(OCC2CC2)n1)N1CC(F)(F)C(F)(F)C1` [Example 118, [6-Cyclopropylmethoxy-5-(3,3-difluoro-azetidin-1-yl)-pyridin-2-yl]-(3,3,4,4-tetrafluoro-pyrrolidin-1-yl)-methanone], the values for the EC50 at human CB2 receptors and on human CB1 receptors were 13.2 nM and more than 10000 nM, respectively.

For `CC1CN(C(=O)c2ccc(N3CC(F)(F)C3)c(OCC3CC3)n2)CC(C)O1` (centres unmarked) [Example 119, [6-Cyclopropylmethoxy-5-(3,3-difluoro-azetidin-1-yl)-pyridin-2-yl]-(2,6-dimethyl-morpholin-4-yl)-methanone], the results for the EC50 on human CB2 receptors and at human CB1 receptors were 599 nM and more than 10000 nM, respectively.

As to `CC1(C)SCN(C(=O)c2ccc(N3CC(F)(F)C3)c(OCC3CC3)n2)[C@@H]1C(N)=O` [Example 120, (R)-3-[6-Cyclopropylmethoxy-5-(3,3-difluoro-azetidin-1-yl)-pyridine-2-carbonyl]-5,5-dimethyl-thiazolidine-4-carboxylic acid amide], the EC50 on human CB2 receptors is 42 nM; at human CB1 receptors it was more than 10000 nM.

Take `CC1(C)CC[C@@H](C(N)=O)N1C(=O)c1ccc(N2CC(F)(F)C2)c(OCC2CC2)n1` [Example 121, (S)-1-[6-Cyclopropylmethoxy-5-(3,3-difluoro-azetidin-1-yl)-pyridine-2-carbonyl]-5,5-dimethyl-pyrrolidine-2-carboxylic acid amide]: the EC50 was 112 nM at human CB2 receptors and more than 10000 nM at human CB1 receptors.

As for `NC(=O)C1CSCN1C(=O)c1ccc(N2CC(F)(F)C2)c(OCC2CC2)n1` (centres unmarked) [Example 122, 3-[6-Cyclopropylmethoxy-5-(3,3-difluoro-azetidin-1-yl)-pyridine-2-carbonyl]-thiazolidine-4-carboxylic acid amide], the EC50 is 50 nM at human CB2 receptors and more than 10000 nM at human CB1 receptors.

As for `NC(=O)[C@@H]1C[C@@H](F)CN1C(=O)c1ccc(C2CC2)c(OCC2CC2)n1` [Example 123, (2S,4R)-1-[5-Cyclopropyl-6-(cyclopropylmethoxy)pyridine-2-carbonyl]-4-fluoropyrrolidine-2-carboxamide], the values for the EC50 on human CB2 receptors and on human CB1 receptors were 58.4 nM and more than 10000 nM, respectively.

With `NC(=O)C1C[S+]([O-])CN1C(=O)c1ccc(N2CC(F)(F)C2)c(OCC2CC2)n1` (centres unmarked) [Example 124, 3-[6-(Cyclopropylmethoxy)-5-(3,3-difluoroazetidin-1-yl)pyridine-2-carbonyl]-1-oxo-1,3-thiazolidine-4-carboxamide], the EC50 at human CB2 receptors was 52.6 nM; on human CB1 receptors, more than 10000 nM.

As for `NC(=O)C1CS(=O)(=O)CN1C(=O)c1ccc(N2CC(F)(F)C2)c(OCC2CC2)n1` (centres unmarked) [Example 125, 3-[6-(Cyclopropylmethoxy)-5-(3,3-difluoroazetidin-1-yl)pyridine-2-carbonyl]-1,1-dioxo-1,3-thiazolidine-4-carboxamide], the figures for the EC50 at human CB2 receptors and at human CB1 receptors were 9.5 nM and more than 10000 nM, respectively.

For the compound `NC(=O)[C@@H]1C[C@@H](F)CN1C(=O)c1ccc(N2CC(F)(F)C2)c(OCC2CC2)n1` [Example 126, (2S,4R)-1-[6-(Cyclopropylmethoxy)-5-(3,3-difluoroazetidin-1-yl)pyridine-2-carbonyl]-4-fluoropyrrolidine-2-carboxamide], the EC50 at human CB2 receptors is 40 nM; at human CB1 receptors it was more than 10000 nM.

As for `NC(=O)[C@@H]1CS(=O)(=O)CN1C(=O)c1ccc(N2CC(F)(F)C2)c(OCC2CC2)n1` [Example 127, (−)-3-[6-(Cyclopropylmethoxy)-5-(3,3-difluoroazetidin-1-yl)pyridine-2-carbonyl]-1,1-dioxo-1,3-thiazolidine-4-carboxamide], the EC50 at human CB2 receptors is 3.4 nM; on human CB1 receptors, more than 10000 nM.

`COC1CN(c2ccc(C(=O)N3CS(=O)(=O)CC3C(N)=O)nc2OCC2CC2)C1` (centres unmarked) [Example 128, 3-[6-(Cyclopropylmethoxy)-5-(3-methoxyazetidin-1-yl)pyridine-2-carbonyl]-1,1-dioxo-1,3-thiazolidine-4-carboxamide]: the values for the EC50 on human CB2 receptors and on human CB1 receptors were 30.2 nM and more than 10000 nM, respectively.

`NC(=O)[C@@H]1CC(F)(F)CN1C(=O)c1ccc(C2(O)CCC2)c(OCC2CC2)n1` [Example 129, (2S)-1-[6-(Cyclopropylmethoxy)-5-(1-hydroxycyclobutyl)pyridine-2-carbonyl]-4,4-difluoropyrrolidine-2-carboxamide]: the EC50 is 75.8 nM at human CB2 receptors and more than 10000 nM on human CB1 receptors.

Consider `NC(=O)[C@@H]1CC(F)(F)CN1C(=O)c1ccc(C2(F)CCC2)c(OCC2CC2)n1` [Example 130, (2S)-1-[6-(Cyclopropylmethoxy)-5-(1-fluorocyclobutyl)pyridine-2-carbonyl]-4,4-difluoropyrrolidine-2-carboxamide], for which the EC50 on human CB2 receptors is 2.3 nM; at human CB1 receptors, more than 10000 nM.
